According to US20190055576A1, “USE OF HERBICIDE-TOLERANT PROTEIN” (BEIJING DABEINONG TECHNOLOGY GROUP CO., LTD., priority 2016, published 2019):

Legend:
[1] = test system: transgenic soybean plants (Gm cytoplasmic/chloroplastic ALT-1-01, ALT-2-01, ALT-3-01); test: Sulfometuron-methyl tolerance of transgenic soybean plants, damage degree by leaf curl and growth point damage; type: in vivo; settings: 120 g ai/ha; for Average damage % 3DAT / Average damage % 7DAT / Average damage % 14DAT / Average damage % 21DAT: 4-fold field concentration; for Average damage % 3DAT: 3 days after spraying; for Average damage % 7DAT: 7 days after spraying; for Average damage % 14DAT: 14 days after spraying; for Average damage % 21DAT: 21 days after spraying
Source text: (§1) The herbicide tolerance effects of Gm cytoplasmic ALT-1-01 soybean plants, Gm chloroplastic ALT-1-01 soybean plants, Gm cytoplasmic ALT-2-01 soybean plants, Gm chloroplastic ALT-2-01 soybean plants, Gm cytoplasmic ALT-3-01 soybean plants, Gm chloroplastic ALT-3-01 soybean plants and wild-type soybean plants on Sulfometuron-methyl were detected (at seedling stage), respectively.
(§2) Gm cytoplasmic ALT-1-01 soybean plants, Gm chloroplastic ALT-1-01 soybean plants, Gm cytoplasmic ALT-2-01 soybean plants, Gm chloroplastic ALT-2-01 soybean plants, Gm cytoplasmic ALT-3-01 soybean plants, Gm chloroplastic ALT-3-01 soybean plants and wild-type soybean plants were respectively taken and sprayed with Sulfometuron-methyl (120 g ai/ha, 4-fold field concentration) and a blank solvent (water). The damage degree caused by the herbicide was measured for each plant according to the leaf curl degree and the growth point damage degree 3 days after spraying (3 DAT), 7 days after spraying (7 DAT), 14 days after spraying (14 DAT) and 21 days after spraying (21 DAT), respectively: considering conditions of leaves being flat as the untreated plants and growth points being intact as having a damage degree of 0%; considering conditions of veins being locally browned, new leaves being malformed and plant growth being slow as having a damage degree of 50%; and considering conditions of veins being purple to whole plant being dead and growth points being browned and dry as having a damage degree of 100%. There were 2 strains in Gm cytoplasmic ALT-1-01 soybean plants in total (S1 and S2), 2 strains in Gm chloroplastic ALT-1-01 soybean plants in total (S3 and S4), 2 strains in Gm cytoplasmic ALT-2-01 soybean plants in total (S5 and S6), 2 strains in Gm chloroplastic ALT-2-01 soybean plants in total (S7 and S8), 2 strains in Gm cytoplasmic ALT-3-01 soybean plants in total (S9 and S10), 2 strains in Gm chloroplastic ALT-3-01 soybean plants in total (S11 and S12), and 1 strain in wild-type soybean plants (CK1) in total; and 10-15 plants were selected from each strain and tested.

[2] = test system: wild-type soybean plants (CK1); test: Sulfometuron-methyl tolerance of wild-type soybean plants, damage degree; type: in vivo; settings: 120 g ai/ha
Source text: as §1, §2

[3] = strain S1 (Gm cytoplasmic ALT-1-01 soybean)
[4] = strain S2 (Gm cytoplasmic ALT-1-01 soybean)
[5] = strain S3 (Gm chloroplastic ALT-1-01 soybean)
[6] = strain S4 (Gm chloroplastic ALT-1-01 soybean)
[7] = strain S5 (Gm cytoplasmic ALT-2-01 soybean)
[8] = strain S6 (Gm cytoplasmic ALT-2-01 soybean)
[9] = strain S7 (Gm chloroplastic ALT-2-01 soybean)
[10] = strain S8 (Gm chloroplastic ALT-2-01 soybean)
[11] = strain S9 (Gm cytoplasmic ALT-3-01 soybean)
[12] = strain S10 (Gm cytoplasmic ALT-3-01 soybean)
[13] = strain S11 (Gm chloroplastic ALT-3-01 soybean)
[14] = strain S12 (Gm chloroplastic ALT-3-01 soybean)

In the case of COC(=O)c1ccccc1S(=O)(=O)NC(=O)Nc1nc(C)cc(C)n1 [Sulfometuron-methyl, 2-(4,6-dimethylpyrimidine-2-amino-formamido-sulfonyl) methyl benzoate], the “Average damage % 3DAT” value [1, 3] was 6%, the “Average damage % 7DAT” value [1, 3] was 0% and the “Average damage % 14DAT” value [1, 3] was 0%. The “Average damage % 21DAT” value [1, 3] was 0%, the “Average damage % 3DAT” value [1, 4] was 7% and the “Average damage % 7DAT” value [1, 4] was 0%. The “Average damage % 14DAT” value [1, 4] was 0%, the “Average damage % 21DAT” value [1, 4] was 0% and the “Average damage % 3DAT” value [1, 5] was 0%. The “Average damage % 7DAT” value [1, 5] was 0%, the “Average damage % 14DAT” value [1, 5] was 0% and the “Average damage % 21DAT” value [1, 5] was 0%. For the same compound, the “Average damage % 3DAT” value [1, 6] was 0%, the “Average damage % 7DAT” value [1, 6] was 0% and the “Average damage % 14DAT” value [1, 6] was 0%. For the same compound, the “Average damage % 21DAT” value [1, 6] was 0%, the “Average damage % 3DAT” value [1, 7] was 6% and the “Average damage % 7DAT” value [1, 7] was 0%. The “Average damage % 14DAT” value [1, 7] was 0%, the “Average damage % 21DAT” value [1, 7] was 0% and the “Average damage % 3DAT” value [1, 8] was 5%. The “Average damage % 7DAT” value [1, 8] was 0%, the “Average damage % 14DAT” value [1, 8] was 0% and the “Average damage % 21DAT” value [1, 8] was 0%. The “Average damage % 3DAT” value [1, 9] was 0%, the “Average damage % 7DAT” value [1, 9] was 0% and the “Average damage % 14DAT” value [1, 9] was 0%. For the same compound, the “Average damage % 21DAT” value [1, 9] was 0%, the “Average damage % 3DAT” value [1, 10] was 0% and the “Average damage % 7DAT” value [1, 10] was 0%. The “Average damage % 14DAT” value [1, 10] was 0%, the “Average damage % 21DAT” value [1, 10] was 0% and the “Average damage % 3DAT” value [1, 11] was 8%. For the same compound, the “Average damage % 7DAT” value [1, 11] was 0%, the “Average damage % 14DAT” value [1, 11] was 0% and the “Average damage % 21DAT” value [1, 11] was 0%. The “Average damage % 3DAT” value [1, 12] was 7%, the “Average damage % 7DAT” value [1, 12] was 0% and the “Average damage % 14DAT” value [1, 12] was 0%. The “Average damage % 21DAT” value [1, 12] was 0%, the “Average damage % 3DAT” value [1, 13] was 0% and the “Average damage % 7DAT” value [1, 13] was 0%. For the same compound, the “Average damage % 14DAT” value [1, 13] was 0%, the “Average damage % 21DAT” value [1, 13] was 0% and the “Average damage % 3DAT” value [1, 14] was 0%. For the same compound, the “Average damage % 7DAT” value [1, 14] was 0%, the “Average damage % 14DAT” value [1, 14] was 0% and the “Average damage % 21DAT” value [1, 14] was 0%. For the same compound, the “herbicide tolerance conferred by the thifensulfuron hydrolase (ALT-1, ALT-2 and ALT-3)” value ([1]; transgenic soybean plants) was “conferred a high level of Sulfometuron-methyl herbicide tolerance”, the “Average damage % 3DAT” value ([2]; CK1 (wild-type soybean), 4-fold field concentration, 3 days after spraying) was 49% and the “Average damage % 7DAT” value ([2]; CK1 (wild-type soybean), 4-fold field concentration, 7 days after spraying) was 87%. The “Average damage % 14DAT” value ([2]; CK1 (wild-type soybean), 4-fold field concentration, 14 days after spraying) was 100%, the “Average damage % 21DAT” value ([2]; CK1 (wild-type soybean), 4-fold field concentration, 21 days after spraying) was 100% and the “herbicide tolerance of wild-type plants” value ([2]; wild-type soybean plants) was “not tolerant”.
